Experiments:
HDAC-2 [1] = assay: HDAC-2 pulse labeling and pulse-chase analysis in HEK293T cells; type: cell-based, human
Experimental: (§1) FIG. 8: Synthesis and degradation rate of HDAC-2 were analyzed by pulse metabolic labeling with ^35S-methionine and pulse-chase analyses. ^35S-labelled HDAC-2 was detected by HDAC-2 specific immune precipitation followed by SDS-PAGE separation and autoradiography. (A) Pulse labeling for 1 h was performed in F9 and HEK293T cells which had been left untreated or were pretreated with 1 mM VPA for 24 h. (B) For pulse chase analysis cells were left untreated or pretreated for 24 h with 1 mM VPA and labeled with ^35S-methionine for an additional hour in the absence or presence of VPA. After removal of ^35S-methionine and addition of non-labeled methionine the elimination of radiolabeled HDAC-2 was followed over a period of 6 h. A pulse chase analysis was also performed in HEK293T cells without VPA pretreatment and addition of VPA (indicated by the (+) row) only at the time when the chase period was started. From HEK293T cell extracts also HDAC-3 was precipitated for reference.

HDAC-3 [2] = assay: HDAC-3 protein levels (Westernblot, reference); type: cell-based; conditions: 1 mM VPA; FIG. 6A; in some experiments a transient induction
Experimental: (§2) FIG. 6: (A) F9 teratocarcinoma or HEK293T embryonic kidney cells were exposed for indicated times to 1 mM VPA. Protein levels of HDAC-2 and HDACs 1 or 3 for reference (HDAC8; N-CoR and Sin3 as data not shown) were determined by Westernblot analysis. […] (C) The effect of other HDAC inhibitors on the amount of HDAC-2 protein was determined by using TSA (100 nM) in a time course analysis in F9 cells (left panel). The HDAC inhibitors TSA (100 nM), trapoxin (TPX, 10 nM), butyrate (1.5 mM) or MS275 (5 μM) were tested at a single time of exposure in HEK293T cells (right panel).

TRAIL [3] = assay: TRAIL expression in spleen after in vivo treatment (RNAse protection assay); set-up: species or system mice; conditions: VPA 400 mg/kg every 12 hours, FIG. 4A
RLIM = RLIM protein levels in HEK293T cells (Westernblot); type: cell-based, human; conditions: 24 hours, VPA 0.5, 1.5 or 5 mM, TSA 30, 100 or 300 nM, FIG. 12
Experimental: FIG. 12 (A) RLIM protein levels were determined by Westernblot analysis after treatment of HEK293T cells for 24 hours with the HDAC inhibitors VPA (0.5, 1.5, or 5 mM), TSA (30, 100 or 300 nM) or a combination of VPA (1.5 mM) and TSA (100 nM). Actin protein levels are shown as a control for equal loading. (B) RLIM protein levels were determined by Westernblot analysis after treatment of HEK293T cells for 24 hours with the HDAC inhibitor TSA (100 nM), the proteasome inhibitor ALLN (2.5 μM) or a combination of both. Actin protein levels are shown as a control for equal loading.

HDAC-2 [4] = assay: HDAC-2 pulse labeling and pulse-chase analysis in F9 cells; type: cell-based, murine; conditions: 1 mM VPA pretreatment 24 h
Experimental: as §1

TRAIL [5] = assay: TRAIL expression in Calu-3 cells (quantitative PCR); type: cell-based, human; conditions: VPA 1 mM, FIG. 4B
Experimental: FIG. 4: (A) Secondary acute promyelocytic leukemias were induced in mice as described above. Leukemic mice or healthy mice (Ctrl) were then treated with placebo (lanes 1, 3), VPA (400 mg/kg every 12 hours), all-trans retinoic acid (a 21-day-release pellet containing 5 mg RA or placebo: lanes 8-9), and VPA plus retinoic acid (lanes 10-11). Mice were sacrificed 18 hours (lanes 4-5), or 36 hours after beginning of treatment (lanes 3, 6-7, 10-11): total RNAs were collected from the spleens (with a >75% invasion of leukemic blasts as assessed by Giemsa staining) and analyzed by RNAse protection assay to check for expression of TRAIL. Faf and GAPDH were used as controls, not affected by these treatments. (B) Calu-3 cells (a human, non-small cell lung cancer derived cell line) were treated with VPA (1 mM) for the indicated times. RNA was extracted and analyzed by quantitative PCR (Perkin-Elmer), using primers specific for TRAIL. GAPDH was used to normalize.

Ubc8 = Ubc8 expression in F9 cells (Northern blot, real time PCR); type: cell-based, murine; conditions: 1 mM VPA, FIG. 11
Experimental: FIG. 11 (A) F9 cells were treated for indicated times with 1 mM VPA and abundance of Ubc8 mRNA was determined by Northern blot analysis from 5 μg polyA^+ mRNA with a probe drived from the 3′-UTR of the cDNA. GAPDH mRNA was determined as reference. Phosphorimager analysis was performed for quantitative evaluation and relative values normalized for GAPDH are presented below the graph. One of two experiments with similar results is shown. (B) Ubc8 mRNA was also determined by real time PCR assuming an 1.5-fold amplification per cycle. The amplicon was part of the coding sequence of the Ubc8 mRNA. F9 cells were treated for 17 h with 1 mM VPA (V) or 100 nM TSA (T). Results were normalized for GAPDH expression. Average values ± range of duplicate determinations are shown.

HDAC-2 [6] = assay: Ubiquitinated HDAC-2 by His6-tagged ubiquitin / Ni2+-NTA agarose precipitation in HEK293T cells; type: cell-based, human; conditions: VPA 36 h, FIG. 10B
Experimental: FIG. 10: (A) The total amount of high molecular weight poly-ubiquitinated protein was not altered by VPA treatment of cells (left two lanes). The presence of ubiquitinated proteins in anti HDAC-2 immune precipitates is shown in the right part of the panel. Cells had either been left untreated, were exposed to VPA (1.5 mM, 24 h) or the proteasome inhibitor ALLN (5 μM, 24 h) or both. Ubiquitinated proteins in the precipitates were detected by Western blot analysis. For lane N a non-immune serum was used instead of the anti HDAC-2 antibody. (B) The presence of mono- and/or oligo-ubiquitinated HDAC-2 upon VPA treatment of HEK293T cells was determined by ectopic expression of His6-tagged ubiquitin followed by VPA-treatment for 36 h as indicated. The proteasome inhibitor MG-132 was added 4 h prior to analysis to enhance the accumulation of ubiquitinated proteins. Electrophoretic mobility and unaltered presence of non-ubiquitinated HDAC-2 were determined by Westernblot analysis of whole cell extracts (left panel). Ubiquitinated proteins were precipitated with Ni^2+-NTA-agarose and analyzed for presence of ubiquitinated HDAC-2 (middle panel) by Westernblot analysis of precipitates. Anti-HDAC-2 immuno-reactive bands with the expected mobility of mono- or poly-ubiquitinated HDAC-2 are indicated by a bracket.

HDAC-1 = HDAC-1 protein levels (Westernblot, reference); type: cell-based; conditions: 1 mM VPA; FIG. 6A; in some experiments a transient induction
Experimental: as §2

HDAC-3 [7] = assay: HDAC-3 pulse-chase analysis in HEK293T cells; type: cell-based, human; conditions: VPA pretreatment, FIG. 8B
Experimental: as §1

## CCCC(CCC)C(=O)O [VPA, Valproic acid]
HDAC-2 [1]; 1 mM VPA pretreatment 24 h, FIG. 8A
  HDAC-2 synthesis rate (35S-methionine pulse labeling): No substantial difference in HDAC-2 synthesis rate
HDAC-2 [1]; 1 mM VPA pretreatment 24 h, FIG. 8B
  half-life of HDAC-2 (pulse-chase): substantially decreased
HDAC-2 [1]; VPA added only at the time of chase, FIG. 8B
  HDAC-2 protein degradation rate: no effect
HDAC-3 [2]
  HDAC-3 protein levels: not reduced
TRAIL [3]; healthy mice
  TRAIL expression in spleen: did not cause induction of TRAIL expression
TRAIL [3]; leukemic mice, 18 or 36 hours
  TRAIL expression in spleen: induced TRAIL for the entire duration of treatment
RLIM
  RLIM protein levels / degradation: without changing expression of the E3 ubiquitin ligase, RLIM
HDAC-2 [4]; FIG. 8A
  HDAC-2 synthesis rate (35S-methionine pulse labeling): No substantial difference in HDAC-2 synthesis rate
HDAC-2 [4]; FIG. 8B
  half-life of HDAC-2 (pulse-chase): substantially decreased
TRAIL [5]
  TRAIL expression (quantitative PCR, normalized to GAPDH): strongly induced
Ubc8
  expression of the gene encoding Ubc8: inducible by VPA
HDAC-2 [6]
  gross abundance of ubiquitinated proteins (anti His-tag): not altered
HDAC-2 [6]; MG-132 added 4 h prior to analysis
  oligo- and polyubiquitinated HDAC-2 bands in Ni2+-NTA-agarose precipitates: much more abundant
HDAC-1
  HDAC-1 protein levels: not reduced
HDAC-3 [7]
  degradation of HDAC-3 (pulse-chase): not affected
